Measured values published in patent US6773702B2, “Use of combretastatin A4 and its prodrugs as an immune enhancing therapy” (OXiGENE, Inc., priority 2000, dated 2004).

How the values were obtained:
[1] = tested on: spleen cells isolated from BN7005-H1D2 tumor-bearing rats; experiment: In vitro proliferation of spleen cells from vaccinated tumor-bearing rats treated in vivo with CA4P (FIG. 1); parameters: species or system rat; details: CA4P 2 mg/kg 5 days a week + vaccination
[2] = tested on: spleen cells isolated from BN7005-H1D2 tumor-bearing rats; experiment: In vitro proliferative response of spleen cells after 20 days of in vivo CA4P at 5 or 2 mg/kg (FIG. 2A); parameters: species or system rat; details: 20 days daily treatment, H1D2-WT or IL-18 transfectant stimulator cells
Protocol: FIG. 2A illustrates the in vitro immune proliferative response of spleen cells isolated from BN7005-H1D2 tumor-bearing rats previously treated with a combination of active immunomodulatory gene therapy (IL-18 and IL-12 transfected tumor cells) and CA4P (5 or 2 mg/kg) in vivo. The cells were stimulated with untransfected (H1D2-WT) tumor cells or IL-18 (H1D2-IL18) transfected tumor cells after 20 days of tumor growth.
Results of in vitro studies indicate that the dose of Combretastatin A4 Prodrug that is administered is critical for obtaining a specific immunological effect. […] Proliferation of spleen immune cells was monitored by 3-H-thymidine incorporation (CPM) after 5 days incubation. […] Eight μm cryosections were examined directly in a fluorescence microscope and vessel volume was determined (Springer, MP., Ip, TK., and Blau, HM). Angiogenesis monitored by perfusion with space-filling microbead suspension (Mol. Ther. 1: 82-87, 2000). […]
In a second experiment represented in FIG. 2A, wild type H1D2-WT or IL-18 transfected (H1D2-IL-18) cells were used as immune stimulants to assess the in vitro proliferative response of spleen cells isolated from tumor-bearing rats previously treated in vivo with 2 or 5 mg/kg combretastatin A4 prodrug for 20 days. The spleen cells were cultured in RPMI medium and their growth monitored by the incorporation of tritiated thymidine into DNA. […]

[3] = tested on: BT4Cn tumor blood vessels; experiment: Tumor vascular shut-down, open tumor blood vessels 24 h after CA4P (FIG. 2B); type: in vivo, rat
Protocol: FIG. 2B illustrates the percentage of open tumor blood vessels in an excised tumor 24 hours after administration of various doses of CA4P to a BT4Cn tumor bearing rat.
Results of in vitro studies indicate that the dose of Combretastatin A4 Prodrug that is administered is critical for obtaining a specific immunological effect. The specific immunomodulatory properties of CA4P are only observed at a low dosage, whereas higher doses fail to remove the immunosuppressive effects of the established tumor or induce suppression of lymphocyte activity. […] Proliferation of spleen immune cells was monitored by 3-H-thymidine incorporation (CPM) after 5 days incubation. […] An analysis of tumor pathology was performed on BT4Cn tumor-bearing rats when the tumor had growth to a size of 300 mm^3. Rats received single intraperitoneal injections of various doses of CA4P. Twenty-four hours later they were injected with 0.25 ml of Fluo-Spheres bead in the tail vein and sacrificed after 3 min. Tumors were removed and prepared for cryosection. Eight μm cryosections were examined directly in a fluorescence microscope and vessel volume was determined (Springer, MP., Ip, TK., and Blau, HM). Angiogenesis monitored by perfusion with space-filling microbead suspension (Mol. Ther. 1: 82-87, 2000). […] Thus in a preferred embodiment, the dose at which CA4P is administered to achieve a desired immune enhancing effect without vascular shutdown is less than 5 mg/kg.

[4] = tested on: BN7005-H1D2 colon cancer cells; experiment: Comparison of CA4 and CA4P on BN7005-H1D2 tumor growth, alone or with vaccination (FIG. 5); type: in vivo, rat
Protocol: FIGS. 5A AND 5B illustrate a comparison of the therapeutic effect of Combretastatin A4 and Combretastatin A4 Prodrug (2 mg/kg) on tumor growth (BN7005-H1D2) in vivo as a sole therapy or in combination with therapeutic vaccination (IL-18 tumor transfectants). Results are represented as mean tumor volume (FIG. 5A) or as median tumor volume (FIG. 5B) 31 days after tumor initiation.
A comparison was also made of relative effect of CA4 and CA4P administration in vivo with regard to tumor inhibitory effects when used as sole therapy and when combined with immunomodulatory gene therapy. […] A subset of these animals were subjected to regular vaccinations autologous IL-18 and IL-12-transfected tumor cells, respectively.
A comparison has been made of the effect of CA4 and CA4 prodrug with regard to tumor inhibitory effects when used as sole therapy and when combined with immunomodulatory gene therapy. As represented in FIG. 5, wild-type (BN7005-H1D2) colon cancer cells were inoculated intrahepatically and treatment with CA4 and CA4P began on day 7 (2 mg/kg 6 days a week), when the tumors were macroscopically visible. On day 9, 16 and 23, vaccinations occurred using BN7005-H1D2 cells transfected with ILI8 and IL-12, respectively.

[5] = tested on: BN7005-H1D2 colon cancer cells; experiment: Tumor growth with IL-18/IFN-γ vaccination plus CA4P and/or L-NAME (FIG. 6); type: in vivo, rat
Protocol: FIG. 6 illustrates enhancement of the therapeutic effect of vaccination with IL-18/IFN-γ producing tumor transfectant […] cells by concurrent treatment with low dose combretastatin-A4 prodrug and/or L-NAME. Mean tumor volume±SEM is indicated. Significance of differences compared to the PBS control was evaluated by the Student's t test.
Four groups of 6 rats each were inoculated intrahepatically with 1×10^5 wild type colon cancer cells (BN7005-H1D2) on day 0. Drug treatment was initiated on day 7, when the tumor was macroscopically visible as a small nodule, and was repeated 5 days a week. CA4-P was administered i.p. at a dose of 5 mg/kg and L-NAME by gavage at a dose of 48 mg/rat. Vaccination was given twice i.p. on day 10.and 17 with 2×10^6 tumor cells producing IL-18 and IFN-γ, respectively. No drug treatment was given on the day of vaccination and the day after. On day 28 all animals were laparotomized and tumor diameters measured (the longest diameter (a) and the one perpendicular to the first (b) and tumor volume calculated according to the formula 0.4×a×b×b.
Referring to FIG. 6, wild-type (BN7005-H1D2) colon cancer cells were inoculated intrahepatically and combretastatin A4 prodrug treatment began daily on day 7 when the tumors were macroscopically visible. L-NAME, a well known NO inhibitor and effective antitumor agent, was also administered daily. On day 10 and 17 vaccination occurred using BN7005-H1D2 cells transfected with IL-18/IFN-gamma. […] One likely explanation was that both L-NAME and Combretastatin A4 were doing the same thing; i.e. inhibiting the production of proinflammatory cytokines that cause immune suppression.

[6] = cited from earlier work

COc1ccc(/C=C\c2cc(OC)c(OC)c(OC)c2)cc1OP(=O)([O-])[O-].[Na+].[Na+] [CA4P, CA4 phosphate disodium salt]
Rats responding to SEA ([1]; spleen cells challenged with SEA, 5 of 8 (untreated 13%)): 63% | Samples responding to tumor antigen challenge ([1]; spleen cells stimulated with autologous tumor cells, 7 of 18 (immunization alone 8%)): 39% | Proliferative response of spleen cells (3-H-thymidine incorporation) ([2]; CA4P 2 mg/kg): particularly effective in enhancing the anti-tumor immune response | Proliferative response of spleen cells (3-H-thymidine incorporation) ([2]; CA4P 5 mg/kg): some enhancement of a proliferative response | Vascular shutdown ([3]; 2 mg/kg): no vascular shut down could be observed | Vascular shutdown ([3]; doses below 4 mg/kg, single i.p. injection, 24 h): no significant vascular shutdown | Toxicity to microvessels and immune effect ([3]; higher doses, 4-100 mg/kg in the rat): toxic to microvessels and immunosuppressive | Tumor inhibitory effect ([4]; 2 mg/kg 6 days a week as sole therapy): no significant effect as sole therapy | Tumor inhibitory effect ([4]; 2 mg/kg combined with vaccination (IL-18 and IL-12 transfected tumor cells)): significant tumor inhibitory effects | Enhancement by combining L-NAME with combretastatin A4 prodrug ([5]; CA4-P 5 mg/kg + L-NAME 48 mg/rat + vaccination): only a small enhancement | Tumor growth compared to the PBS group ([5]; CA4P 5 mg/kg i.p. + vaccination with IL-18/IFN-γ producing tumor cells, day 28): inhibited the tumor growth significantly | Half-life in vivo [6]: less than 15 min
